Results as given in patent publication US20240115496A1, “A COMPOUND DRY POWDER INHALANT AND USE THEREOF” (TIANJIN UNIVERSITY OF TRADITIONAL CHINESE MEDICINE, priority 2021, published 2024).

Key:
[1] = Particle size distribution test, laser particle size analyzer, dry dispersion; format: physicochemical
Description: The particle size distribution of DPI dry powder was measured by dry dispersion method using laser particle size analyzer, and Dv10, Dv50, Dv90, VMD (Volume median diameter) and SMD (Sauter mean diameter) were determined, respectively.

[2] = In vivo pharmacokinetics, plasma (UPLC-MS/MS); parameters: species or system rat; conditions: for half-life: read-out: HLz (biological half-life) (converted); for MRT last: read-out: MRTlast (mean retention time); for concentration at 2 min / concentration at 10 min / concentration at 15 min / concentration at 30 min / concentration at 60 min / concentration at 120 min / concentration at 240 min / concentration at 360 min / concentration at 4 min: read-out: Blood concentration of BA; for concentration at 4 min: Sprague-Dawley (SD)
Description: (§1) SPF-grade healthy SD male rats, body weight 180-220 g, purchased from SPF (Beijing) Biotechnology Co., Ltd (Certificate No. SCXK (Beijing) 2019-0010), were conventionally reared under (23±2)° C., humidity: (50±10)%. This study was conducted with the approval of the Animal Experiment Center of Tianjin University of Traditional Chinese Medicine.
(§2) 108 SPF-grade SD male rats were randomly divided into tail intravenous injection group and pulmonary administration group, with 9 time points of 2 min, 4 min, 10 min, 15 min, 30 min, 1 h, 2 h, 4 h and 6 h per group, 6 rats per time point per group. The rats were fasted for 12 h before the experiment, with water provided. The rats were weighed (to calculate the dose) and numbered, and both groups were intraperitoneally injected with 10% chloral hydrate at a dose of 2 mL/kg. Group 1 was administered BA/AH-DPI saline solution by tail intravenous injection at a dose of 9 mg/kg. Group 2 was administered 3 mg of BA/AH-DPI fine powder at the same dose by spray administration with a DP-4 tracheal insufflator (1.5 mL of air was pushed each time, 3-4 times consecutively). Blood was sampled from the abdominal aorta of the rats in both groups at the above time points after drug administration, and the rats were executed. The obtained whole blood was placed in a centrifuge tube with sodium heparin, centrifuged at 4000 r/min for 10 min, and the upper layer of plasma was separated and stored a refrigerator at −80° C. After blood collection, the thoracic cavity was quickly opened and the lungs of the rats were isolated. The small amount of floating blood on the surface of the lung tissue was washed with saline in an ice bath. The surface of the lung tissue was blotted with filter paper. The trachea was cut off, wrapped in tin foil and placed in a 10 mL centrifuge tube. The lung was weighed precisely, and stored in a refrigerator at −80° C.
(§3) 100 μL of the plasma sample or lung tissue supernatant was precisely absorbed, and 200 μL (100 ng/mL) of methanol solution containing the internal standard was added. The mixture was vortexed and mixed for 3 min, and centrifuged at 12000 r/min for 10 min to obtain the supernatant as the finished sample. The contents of BA and AH were determined by UPLC-MS/MS method.
(§4) Electrospray ion source (ESI source); scan mode: positive (ESI+) detection; detection mode: multi-reactive ion monitoring (MRM). Electrospray voltage: 4 kV; atomization gas: N2; spray gas flow rate (Gas1): 15 psi; ion source temperature: 300° C.
(§5) Meaning of pharmacokinetic parameters: HLz was the biological half-life, i.e., the time required for the amount or blood concentration of the drug in the body to decrease by half; Tmax was the time to peak, i.e., the time required to reach the peak concentration of the drug after administration. Cmax was the peak drug concentration, i.e., the highest blood concentration that occurred after administration of the drug. AUC was the area enclosed by the blood drug concentration curve against the time axis. Vz/F was the apparent volume of distribution, the ratio constant of the amount of drug in the body to the blood concentration when the drug reached dynamic equilibrium in the body. CL/F was the clearance, i.e., the number of apparent volume of distribution of the drug removed from the body per unit time. AUMC was the first order moment of the drug-time curve, i.e. the area under the curse of the product of time and blood concentration versus time. MRTlast was the mean retention time, i.e., the average of the residence time of drug molecules in the body.

[3] = In vivo pharmacokinetics, lung tissue homogenate (UPLC-MS/MS); parameters: species or system rat; conditions: for CL/F (clearance) / Cmax / Tmax / half-life / MRT last: BA in rat lung tissue; for concentration at 2 min / concentration at 4 min / concentration at 10 min / concentration at 15 min / concentration at 30 min / concentration at 60 min / concentration at 120 min / concentration at 240 min / concentration at 360 min / Cmax / Tmax / half-life / MRT last: male, Sprague-Dawley (SD); for concentration at 2 min / concentration at 4 min / concentration at 10 min / concentration at 15 min / concentration at 30 min / concentration at 60 min / concentration at 120 min / concentration at 240 min / concentration at 360 min: rat lung tissue homogenate, read-out: Drug concentration of BA in lung tissue; for Cmax / Tmax / half-life / MRT last: lung tissue (homogenate supernatant); for half-life: read-out: HLz (biological half-life) (converted); for MRT last: read-out: MRTlast (mean retention time)
Description: as §1, §2
The lung tissues were added to saline in a weight to volume ratio of 1:4 (g:mL). A homogenate was obtained by beating, dispersing and evenly grinding with a homogenizer under an ice water bath, and centrifuged at 6500 r/min for 20 min to obtain the supernatant of the lung tissue homogenate.
as §3, §4, §5

[4] = male, SD, inhaled or intranasal, BA in rat plasma, pulmonary administration group, BA/AH-DPI 9 mg/kg
[5] = male, SD, inhaled, rat plasma, pulmonary administration BA/AH-DPI 9 mg/kg
[6] = male, SD, BA in rat plasma, tail intravenous injection group, 9 mg/kg
[7] = male, SD, rat plasma, tail intravenous injection BA/AH-DPI saline solution 9 mg/kg
[8] = tail intravenous injection group, 9 mg/kg
[9] = inhaled, pulmonary administration BA/AH-DPI 9 mg/kg
[10] = inhaled or intranasal, pulmonary administration group, BA/AH-DPI 9 mg/kg
[11] = tail intravenous injection BA/AH-DPI saline solution 9 mg/kg

SMILES: O=C(O)[C@H]1O[C@@H](Oc2cc3oc(-c4ccccc4)cc(=O)c3c(O)c2O)[C@H](O)[C@@H](O)[C@@H]1O [BA, baicalin]
- D10 [1]: 0.88 μm
- D50 [1]: 5.18 μm
- D90 [1]: 12.61 μm
- SMD (Sauter mean diameter) [1]: 2.23 μm
- VMD (Volume median diameter) [1]: 6.05 μm
- <3 μm ([1]; fraction of particles): 31.81%
- <5 μm ([1]; fraction of particles): 48.66%
- CL/F (clearance) ([2]; BA in rat plasma, tail intravenous injection group, 9 mg/kg): 98.4805 ± 62.0535 mL/min/kg
- Cmax [2, 4]: 2560 ± 351 ng/mL
- Tmax [2, 4]: 9 ± 4.2 min
- CL/F ([2]; male, SD, inhaled or intranasal, BA in rat plasma, pulmonary administration group, BA/AH-DPI 9 mg/kg, read-out: CL/F (clearance) (converted)): 121 mL/min/kg
- half-life [2, 4]: 121 ± 38.4 min
- MRT last [2, 4]: 45 ± 5.52 min
- Vd/F ([2]; male, SD, inhaled or intranasal, BA in rat plasma, pulmonary administration group, BA/AH-DPI 9 mg/kg, read-out: Vz/F (apparent volume of distribution)): 20.9 ± 6.57 L/kg
- bioavailability ([2]; male, SD, inhaled, rat plasma, pulmonary administration of BA/AH-DPI vs tail intravenous injection, 9 mg/kg, read-out: Absolute bioavailability): 60.7%
- concentration at 2 min [2, 5]: 690 ± 438 ng/mL
- concentration at 10 min [2, 5]: 2320 ± 421 ng/mL
- concentration at 15 min [2, 5]: 1470 ± 588 ng/mL
- concentration at 30 min [2, 5]: 628 ± 95.9 ng/mL
- concentration at 60 min [2, 5]: 289 ± 110 ng/mL
- concentration at 120 min [2, 5]: 57.2 ± 14.2 ng/mL
- concentration at 240 min [2, 5]: 27.4 ± 10.9 ng/mL
- concentration at 360 min [2, 5]: 13.4 ± 3.68 ng/mL
- Cmax [2, 6]: 11800 ± 6050 ng/mL
- Tmax [2, 6]: 2.28 ± 0.6 min
- half-life [2, 6]: 48.6 ± 36 min
- MRT last [2, 6]: 14.4 ± 9.6 min
- concentration at 2 min [2, 7]: 11700 ± 6170 ng/mL
- concentration at 10 min [2, 7]: 933 ± 401 ng/mL
- concentration at 15 min [2, 7]: 693 ± 284 ng/mL
- concentration at 30 min [2, 7]: 338 ± 70.3 ng/mL
- concentration at 60 min [2, 7]: 77 ± 46.1 ng/mL
- concentration at 120 min [2, 7]: 53.7 ± 54.2 ng/mL
- concentration at 240 min [2, 7]: 8.68 ± 8.46 ng/mL
- concentration at 360 min [2, 7]: 2.64 ± 5.27 ng/mL
- concentration at 4 min ([2]; male, inhaled, rat plasma, pulmonary administration BA/AH-DPI 9 mg/kg): 1740 ± 962 ng/mL
- concentration at 4 min ([2]; male, rat plasma, tail intravenous injection BA/AH-DPI saline solution 9 mg/kg): 3060 ± 861 ng/mL
- Time of maximum blood concentration in plasma ([2]; rat, pulmonary administration of BA/AH-DPI 9 mg/kg): around 9 min
- CL/F (clearance) ([3]; pulmonary administration group, BA/AH-DPI 9 mg/kg): 800.14 ± 131.95 g/h/kg
- CL/F (clearance) [3, 8]: 29086.90 ± 13876.33 g/h/kg
- concentration at 2 min [3, 9]: 6440 ± 1200 ng/mL
- concentration at 4 min [3, 9]: 4960 ± 1130 ng/mL
- concentration at 10 min [3, 9]: 3190 ± 524 ng/mL
- concentration at 15 min [3, 9]: 1820 ± 346 ng/mL
- concentration at 30 min [3, 9]: 1420 ± 469 ng/mL
- concentration at 60 min [3, 9]: 705 ± 160 ng/mL
- concentration at 120 min [3, 9]: 235 ± 76.2 ng/mL
- concentration at 240 min [3, 9]: 92.2 ± 25.4 ng/mL
- concentration at 360 min [3, 9]: 43.1 ± 16.9 ng/mL
- Cmax [3, 10]: 26000 ± 4490 ng/g
- Tmax [3, 10]: 2.64 ± 1.08 min
- half-life [3, 10]: 84 ± 24 min
- MRT last [3, 10]: 57 ± 5.22 min
- Cmax [3, 8]: 341 ± 112 ng/g
- Tmax [3, 8]: 1.98 min
- half-life [3, 8]: 101 ± 44.4 min
- MRT last [3, 8]: 91.2 ± 36 min
- concentration at 2 min [3, 11]: 85.3 ± 27.9 ng/mL
- concentration at 4 min [3, 11]: 42 ± 7.67 ng/mL
- concentration at 10 min [3, 11]: 45.1 ± 13.6 ng/mL
- concentration at 15 min [3, 11]: 45.8 ± 18.7 ng/mL
- concentration at 30 min [3, 11]: 39.2 ± 22 ng/mL
- concentration at 60 min [3, 11]: 16.3 ± 19.5 ng/mL
- concentration at 120 min [3, 11]: 12.9 ± 10.5 ng/mL
- concentration at 240 min [3, 11]: 8.37 ± 6.37 ng/mL
- concentration at 360 min [3, 11]: 2.71 ± 3.37 ng/mL
